According to patent US20010036965A1, “Iodo-nonoxynol-9-derivatives and methods for their use” (The Medical College of Hampton Roads, Eastern Virginia …, priority 1999, published 2001):

Tests used:
human spermatozoa = assay: Sander-Cramer assay, spermicidal activity; format: cell-based; conditions: for Highest Spermicidal Dilution, median / M.E.C. (minimum effective concentration): solvent dH2O; for Highest Spermicidal Dilution, median: N-9 equimolar 24, kill all spermatozoa within twenty seconds; for M.E.C. (minimum effective concentration): complete spermicidal activity within twenty seconds
Description: N-9 and its iodinated derivatives were assessed in vitro for their ability to kill spermatozoa and HIV virions. The Sander-Cramer assay was performed in order to evaluate the spermicidal activity of the surfactants and their coprecipitates with PVP. This assay determines the minimum lethal dose, reported as a concentration, of spermicide needed to kill all spermatozoa within twenty seconds. The following oligomers were incorporated into coprecipitates with PVP for the in vitro assessment: IN-9 (n=1-17), IN-9 (n=8) and IN-9 (n=13). The neat liquids of N-9 and IN-9 were also assessed for their spermicidal activity. The quantity of active compound in each coprecipitate was determined by a normal phase HPLC analysis and presented as a weight by weight (w/w) percentage. The amount of active compound in each coprecipitate was adjusted by using the w/w percentages so that the assays were conducted using equimolar amounts of active compounds.

free HIV-1-RF = assay: Cell-Free HIV Inactivation assay; format: cell-based; conditions: for Infec. Red. (log), Cell-Free HIV Inactivation: two minute incubation; for virucidal activity against cell-free HIV: sufficient if viral titer reduction of at least two log10 units
Description: (§1) The compounds used in the Sander-Cramer assays (neat liquids and coprecipitates) were evaluated for their anti-HIV activity using the Cell-Free and Cell-Associated Inactivation Assays (see Table #3). Both assays employ solutions of active compound at varying concentrations in order to detect the optimal concentration to reduce the infectivity of a predetermined HIV viral load in the form of free HIV-1-RF or RF infected H9 cells. A solution of active compound is determined to have sufficient anti-viral activity if, when tested, a viral titer reduction of at least two log10 units occurs. N-9 and IN-9, in their neat liquid forms, were both found to be virucidal against cell-free and cell-associate HIV. […] The coprecipitates of N-9 (n=1-17) and IN-9 (n=1-17) were also virucidal in both assays.

RF infected H9 cells = assay: Cell-Associated HIV Inactivation assay; format: cell-based, HIV-1; conditions: for Infec. Red. (log), Cell-Associated HIV Inactivation: two minute incubation; for virucidal activity against cell-associated HIV: sufficient if viral titer reduction of at least two log10 units
Description: as §1

[1] = Solubility and pH of test solutions in dH2O (Table 2); conditions: in dH2O at initial concentration of the Sander-Cramer assay
[2] = Partition coefficient in n-octanol/water (log P) with radiolabeled species; format: physicochemical
Source text: Radiolabeled species ([^14C]nonoxynol-9, [^125I]iodinated nonoxynol-9) were used to obtain precise measurements of the log P values. Iodinated nonoxynol-9 was conceptualized to be more lipophilic based upon the work by chemists such as Hammett and Hansch. Hammett determined that the halogens (F, Cl, Br, I), when attached covalently to an aromatic ring, withdrew a portion of the electron density out of the ring. The decrease in electron density causes the ring to be less susceptible to induced polarization by solvent molecules, therefore increasing its lipophilic character. The hydrophobic parameter π, developed by Hansch, reflects a substituent's ability to impart lipophilic character on a molecule (π=log Psubstituted molecule−log […]). Hansch found experimentally that the halogens created a positive π value in most molecular systems which correlated with an increase in the lipophilicity of the compound. […] Additionally, the lengthening of the ethylene oxide chain allows for reduced irritation of the vaginal epithelial lining by reducing the formation of micelles. […] Iodide was chosen as the halogen to substitute nonoxynol-9 due to its relatively large σ and π values it produces when employed as a substituent. With an increase in the hydrophobic character, iodinated nonoxynol-9 should insert into sperm membranes more readily leading to an increase in spermicidal activity. In addition, the molecular weight and size of iodinated nonoxynol-9 is greater than that of nonoxynol-9 which leads to the possibility of the molecule being less bioavailable from vaginally placed dosage forms.

HIV-1 = conditions: background; cited from earlier work
[3] = background; cited from earlier work
[4] = as determined by [14C]N-9, mean ± spread
[5] = as determined by 125IN-9, mean ± spread

Mono-iodinated nonoxynol-9 [IN-9 (1-17)]
MEC times less than that of neat N-9 (n=1-17) (human spermatozoa; neat liquids): over 30 times | Highest Spermicidal Dilution, median (human spermatozoa): 4096.0 | M.E.C. (minimum effective concentration) (human spermatozoa): 6.0 µg/mL | Infec. Red. (log), Cell-Free HIV Inactivation (free HIV-1-RF; Conc. 0.0032 %): 0.3 log | Infec. Red. (log), Cell-Free HIV Inactivation (free HIV-1-RF; Conc. 0.01 %): 2.3 log | Infec. Red. (log), Cell-Free HIV Inactivation (free HIV-1-RF; Conc. 0.032 %): 3.3 log | Infec. Red. (log), Cell-Free HIV Inactivation (free HIV-1-RF; Conc. 0.1 %): >4.5 log | effectiveness in killing HIV compared with N-9 (n=1-17) (free HIV-1-RF; statement on Table 3, both assays): at least as effective in killing HIV as N-9 (n=1-17) | virucidal activity against cell-free HIV (free HIV-1-RF): virucidal | effectiveness against cell-associated HIV compared with N-9 (RF infected H9 cells): slightly more effective than N-9 | Infec. Red. (log), Cell-Associated HIV Inactivation (RF infected H9 cells; Conc. 0.0032 %): 1.0 log | Infec. Red. (log), Cell-Associated HIV Inactivation (RF infected H9 cells; Conc. 0.01 %): 1.8 log | Infec. Red. (log), Cell-Associated HIV Inactivation (RF infected H9 cells; Conc. 0.032 %): 2.3 log | Infec. Red. (log), Cell-Associated HIV Inactivation (RF infected H9 cells; Conc. 0.1 %): >5.0 log | virucidal activity against cell-associated HIV (RF infected H9 cells): virucidal | Solubility [1]: OK hazy soln.

Nonoxynol-9 [N-9 (n=4), reference compound]
log P [2, 4]: 1.6 ± 0.05

CCCCCCCCCc1ccc(OCCOCCOCCOCCOCCOCCOCCOCCOCCO)cc1 [N-9 (1-17), nonoxynol-9]
Highest Spermicidal Dilution, median (human spermatozoa): 128.0 | M.E.C. (minimum effective concentration) (human spermatozoa): 188.0 µg/mL | inactivation of HIV-1 in vitro (HIV-1): inactivates HIV-1 completely | vaginal irritation [3]: increase with increased dose | Infec. Red. (log), Cell-Free HIV Inactivation (free HIV-1-RF; Conc. 0.0032 %): 0.3 log | Infec. Red. (log), Cell-Free HIV Inactivation (free HIV-1-RF; Conc. 0.01 %): 2.3 log | Infec. Red. (log), Cell-Free HIV Inactivation (free HIV-1-RF; Conc. 0.032 %): >4.5 log | Infec. Red. (log), Cell-Free HIV Inactivation (free HIV-1-RF; Conc. 0.1 %): >3.5 log | virucidal activity against cell-free HIV (free HIV-1-RF): virucidal | Infec. Red. (log), Cell-Associated HIV Inactivation (RF infected H9 cells; Conc. 0.0032 %): 0.8 log | Infec. Red. (log), Cell-Associated HIV Inactivation (RF infected H9 cells; Conc. 0.01 %): 0.8 log | Infec. Red. (log), Cell-Associated HIV Inactivation (RF infected H9 cells; Conc. 0.032 %): 2.5 log | Infec. Red. (log), Cell-Associated HIV Inactivation (RF infected H9 cells; Conc. 0.1 %): 3.2 log | virucidal activity against cell-associated HIV (RF infected H9 cells): virucidal | Solubility [1]: OK clear soln.

Mono-iodinated Nonoxynol-9 [IN-9 (n=13)]
log P [2, 5]: 1.8 ± 0.1

Mono-iodinated Nonoxynol-9 [IN-9 (n=11)]
log P [2, 5]: 2.2 ± 0.1

Mono-iodinated Nonoxynol-9 [IN-9 (n=4)]
log P [2, 5]: 2.4 ± 0.2

Nonoxynol-9 [N-9 (n=11), reference compound]
log P [2, 4]: 1.3 ± 0.07

Mono-iodinated Nonoxynol-9 [IN-9 (n=8)]
log P [2, 5]: 2.2 ± 0.1

Nonoxynol-9 [N-9 (n=8), reference compound]
log P [2, 4]: 1.4 ± 0.01
